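Compound exposure: 48 hours, 5 concentrations, 96-well plates. GI50 is the concentration that inhibits growth by half.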 Active and inactive are the calls of the source. No stated cut-off is given here; in the data, active = GI50 up to about 1.1 µM and inactive = higher.
Experiments:
Assay in all cases: NCI tumour cell line growth inhibition, 48 h
[1] = test system: CAKI-1
[2] = test system: CCRF-CEM
[3] = test system: HOP-62
[4] = test system: K562
[5] = test system: KM12
[6] = test system: MOLT-4
[7] = test system: OVCAR-3
[8] = test system: OVCAR-4
[9] = test system: OVCAR-8
[10] = test system: SF-295
[11] = test system: SK-MEL-28
[12] = test system: SK-MEL-2
[13] = test system: SW-620
[14] = test system: TK-10
[15] = test system: U-251
[16] = test system: UACC-257
[17] = test system: UO-31
[18] = test system: DU-145
[19] = test system: MDA-MB-231

| Structure (SMILES) | GI50 [1] | GI50 [2] | GI50 [3] | GI50 [4] | GI50 [5] | GI50 [6] | GI50 [7] | GI50 [8] | GI50 [9] | GI50 [10] | GI50 [11] | GI50 [12] | GI50 [13] | GI50 [14] | GI50 [15] | GI50 [16] | GI50 [17] | GI50 [18] | GI50 [19] |
| --- | --- | --- | --- | --- | --- | --- | --- | --- | --- | --- | --- | --- | --- | --- | --- | --- | --- | --- | --- |
| CCc1nc2c(O)ccc(O)c2nc1C | 18.1 µM (inactive) | 2.9 µM (inactive) | 18 µM (inactive) | 4.08 µM (inactive) | 17 µM (inactive) | 3.65 µM (inactive) | 14.7 µM (inactive) | 6.75 µM (inactive) | 10 µM (inactive) | 20 µM (inactive) | 19.6 µM (inactive) | 18 µM (inactive) | 2.15 µM (inactive) | 22.5 µM (inactive) | 16.5 µM (inactive) | 17.4 µM (inactive) | 19.3 µM (inactive) |  |  |
| CCCCCCCCCC1C(C)c2c([nH]c3ccccc23)C2C(=O)N(c3ccccc3)C(=O)C21 (stereo not drawn) | 14 µM (inactive) | 3.1 µM (inactive) | 17.2 µM (inactive) | 3.67 µM (inactive) | 4.79 µM (inactive) | 2.54 µM (inactive) | 3.43 µM (inactive) | 5.9 µM (inactive) | 7.78 µM (inactive) | 15.4 µM (inactive) | 2.29 µM (inactive) | 16.8 µM (inactive) | 35.7 µM (inactive) | 28 µM (inactive) | 13.8 µM (inactive) | 15.8 µM (inactive) | 13 µM (inactive) |  |  |
| COc1ccc2nc3c(C(=O)NCCN(C)C)cccc3nc2c1 | 3.75 µM (inactive) | 5.55 µM (inactive) | 7.23 µM (inactive) | 5 µM (inactive) | 5.98 µM (inactive) | 3.63 µM (inactive) | 10.2 µM (inactive) | 6.58 µM (inactive) | 5.16 µM (inactive) | 6.41 µM (inactive) | 8.3 µM (inactive) | 6.21 µM (inactive) | 3.1 µM (inactive) | 3.37 µM (inactive) | 5 µM (inactive) | 3.91 µM (inactive) | 4.89 µM (inactive) |  |  |
| Cc1cc(NCCCCCCCCNc2cc(C)nc3cc(N)ccc23)c2ccc(N)cc2n1 | 46.8 µM (inactive) | 3.13 µM (inactive) | 26.9 µM (inactive) | 1.95 µM (inactive) | 12.5 µM (inactive) | > 100 µM (inactive) | 14.9 µM (inactive) | 17.3 µM (inactive) | 17.2 µM (inactive) | 18.2 µM (inactive) | 19.9 µM (inactive) | 13.6 µM (inactive) |  | 44.9 µM (inactive) | 8.57 µM (inactive) | 12.7 µM (inactive) | > 100 µM (inactive) |  |  |
| C[C@H]1O[C@@H](c2c(O)ccc3ccccc23)C[C@@H](N(C)C)C1O (stereo partly drawn) |  | > 100 µM (inactive) | > 100 µM (inactive) | > 100 µM (inactive) |  |  | > 100 µM (inactive) | > 100 µM (inactive) | > 100 µM (inactive) | > 100 µM (inactive) | 97.5 µM (inactive) | > 100 µM (inactive) | > 100 µM (inactive) | 41.3 µM (inactive) | > 100 µM (inactive) | 26.5 µM (inactive) | 41.4 µM (inactive) | > 100 µM (inactive) | > 100 µM (inactive) |
| CS(=O)(=O)OCCN1CCC2(CC1)SSC1(CCN(CCOS(C)(=O)=O)CC1)S2 | 21.8 µM (inactive) |  | > 100 µM (inactive) | 64.4 µM (inactive) | > 100 µM (inactive) | 31.8 µM (inactive) | 29.2 µM (inactive) | 62.1 µM (inactive) | > 100 µM (inactive) | 45.4 µM (inactive) | > 100 µM (inactive) | > 100 µM (inactive) | 42.3 µM (inactive) | 15.7 µM (inactive) | 72.6 µM (inactive) | > 100 µM (inactive) | 45 µM (inactive) |  | > 100 µM (inactive) |
| Oc1ccc(/C=N/c2nccs2)c(O)c1 | > 100 µM (inactive) |  | > 100 µM (inactive) |  | 16 µM (inactive) |  | > 100 µM (inactive) |  | > 100 µM (inactive) | > 100 µM (inactive) |  |  |  | > 100 µM (inactive) |  | > 100 µM (inactive) | > 100 µM (inactive) | > 100 µM (inactive) | > 100 µM (inactive) |
| CCOC(=O)CN.CCOC(=O)Nc1ccc(S(=O)(=O)OC)cc1.CCOC(=O)Nc1ccc(S(=O)(=O)OC)cc1 | > 50 µM (inactive) | > 50 µM (inactive) | > 50 µM (inactive) | > 50 µM (inactive) | > 50 µM (inactive) | > 50 µM (inactive) | > 50 µM (inactive) | > 50 µM (inactive) | > 50 µM (inactive) | > 50 µM (inactive) | > 50 µM (inactive) | > 50 µM (inactive) | 7.83 µM (inactive) | > 50 µM (inactive) | 9.25 µM (inactive) | > 50 µM (inactive) | > 50 µM (inactive) |  |  |
| C#CCOCn1cnc2c(Sc3c([N+](=O)[O-])ncn3C)ncnc21 | > 100 µM (inactive) | 97.7 µM (inactive) | > 100 µM (inactive) | > 100 µM (inactive) | > 100 µM (inactive) |  | > 100 µM (inactive) | 87.5 µM (inactive) | > 100 µM (inactive) | > 100 µM (inactive) | > 100 µM (inactive) | > 100 µM (inactive) | > 100 µM (inactive) | > 100 µM (inactive) | > 100 µM (inactive) | > 100 µM (inactive) | 91.8 µM (inactive) |  |  |
| Cc1ccc(C2(O)CC(c3ccc([N+](=O)[O-])o3)=NN2C(=O)COc2ccccc2Cl)cc1 (stereo not drawn) | 19.4 µM (inactive) | 5.45 µM (inactive) | 29.2 µM (inactive) | 7.26 µM (inactive) | 8.83 µM (inactive) | 3.91 µM (inactive) | 3.94 µM (inactive) | 17.3 µM (inactive) | 11.2 µM (inactive) | 15.3 µM (inactive) | 15.2 µM (inactive) | 8.07 µM (inactive) | 6.7 µM (inactive) | 35.7 µM (inactive) | 9.68 µM (inactive) | 8.18 µM (inactive) | 12.5 µM (inactive) |  |  |
| CC(C(=O)c1ccc(O)cc1)C1(O)C(=O)Nc2c(Cl)cc(Cl)cc21 (stereo not drawn) | > 100 µM (inactive) | 26.6 µM (inactive) | > 100 µM (inactive) | 2.56 µM (inactive) | > 87.3 µM (inactive) | 28.9 µM (inactive) | 31.6 µM (inactive) | 21.7 µM (inactive) | 46.3 µM (inactive) | 45.4 µM (inactive) | 31.1 µM (inactive) | > 100 µM (inactive) | 32.9 µM (inactive) | > 100 µM (inactive) | > 78 µM (inactive) | 17.5 µM (inactive) | > 56.6 µM (inactive) |  |  |
| CC12OC3CC(O1)C1(C=O)C4CCC5(C)C(c6ccc(=O)oc6)CCC5(O)C4CCC1(C3)O2 (stereo not drawn) | 0.207 µM (active) | 0.0735 µM (active) | 0.146 µM (active) | 0.265 µM (active) | 0.379 µM (active) | 0.0344 µM (active) | 0.13 µM (active) | 0.155 µM (active) | 0.256 µM (active) | 0.0986 µM (active) | 0.491 µM (active) | 0.268 µM (active) | 0.177 µM (active) | 0.143 µM (active) | 0.293 µM (active) | 0.234 µM (active) | 0.304 µM (active) |  |  |
| Cc1ccc(-c2c(C#N)c(-c3ccc([N+](=O)[O-])cc3)c(C#N)c(=O)n2NS(=O)(=O)c2ccc(C)cc2)cc1 | 50.6 µM (inactive) | 25.9 µM (inactive) | 67.1 µM (inactive) | 46.2 µM (inactive) | 30.2 µM (inactive) | 19.8 µM (inactive) | 21.2 µM (inactive) | 41.5 µM (inactive) | 49.1 µM (inactive) | 40.9 µM (inactive) | 52.8 µM (inactive) | 62.4 µM (inactive) | 51.6 µM (inactive) | 51.3 µM (inactive) | 44.8 µM (inactive) | > 100 µM (inactive) |  |  | 61.9 µM (inactive) |
| COC(=O)C(=C\Sc1ccccc1)/C=C/C(=O)OC(C)(C)C | 3.87 µM (inactive) | 1.89 µM (inactive) | 19.5 µM (inactive) | 3.01 µM (inactive) | 11.4 µM (inactive) | 2.84 µM (inactive) | 5.25 µM (inactive) | 15 µM (inactive) | 15.3 µM (inactive) | 17.4 µM (inactive) | 13.4 µM (inactive) | 12 µM (inactive) | 3.8 µM (inactive) | 17.1 µM (inactive) | 14.5 µM (inactive) | 13.5 µM (inactive) | 16 µM (inactive) |  |  |
| COc1cc(CNc2cnc3cc(N)ccc3n2)cc(OC)c1OC | 34.7 µM (inactive) | 31.4 µM (inactive) | 51.4 µM (inactive) | 5.53 µM (inactive) | 66.4 µM (inactive) | 15.9 µM (inactive) | 12.6 µM (inactive) | > 100 µM (inactive) | 37.4 µM (inactive) | 17.3 µM (inactive) | > 100 µM (inactive) | 1.14 µM (inactive) | 20 µM (inactive) | 64.9 µM (inactive) | 29.2 µM (inactive) | > 100 µM (inactive) | 36.8 µM (inactive) |  |  |
| N#Cc1c2nc3ccccc3nc2n2ccccc12 | > 100 µM (inactive) | > 100 µM (inactive) | > 100 µM (inactive) | > 100 µM (inactive) | > 100 µM (inactive) | > 100 µM (inactive) | > 100 µM (inactive) | > 100 µM (inactive) | > 100 µM (inactive) |  | > 100 µM (inactive) | > 100 µM (inactive) | > 100 µM (inactive) | > 100 µM (inactive) | > 100 µM (inactive) | > 100 µM (inactive) | > 100 µM (inactive) |  |  |
| O=c1c2cccnc2ncn1CCN1CCCCC1 | > 100 µM (inactive) | > 100 µM (inactive) | > 100 µM (inactive) | > 100 µM (inactive) | > 100 µM (inactive) | > 100 µM (inactive) | > 100 µM (inactive) | > 100 µM (inactive) | > 100 µM (inactive) | > 100 µM (inactive) | > 100 µM (inactive) | > 100 µM (inactive) | > 100 µM (inactive) | > 100 µM (inactive) | > 100 µM (inactive) |  | > 100 µM (inactive) |  |  |
